Assay results from ChEMBL document CHEMBL1155669, “Herbacic acid, a simple prototype of 5,5,5-trichloroleucine metabolites from the sponge Dysidea herbacea” (J Nat Prod, 2000).
Activity calls are given as the source filed them.

How the values were obtained:
Type in all cases: functional, organism-based
Candida albicans [1] = assay: Antifungal activity against Candida albicans ATCC 4503 at <100 ug/mL by microbroth dilution method
Pichia kudriavzevii = assay: Antifungal activity against Candida krusei at <100 ug/mL by microbroth dilution method
Candida albicans [2] = assay: Antifungal activity against fluconazole-resistant Candida albicans 96-489 at <100 ug/mL by microbroth dilution method
Nakaseomyces glabratus = assay: Antifungal activity against Candida glabrata at <100 ug/mL by microbroth dilution method

Measured: Activity

C[C@@H](C/C=C/C(=O)N(C)[C@@H](C[C@H](C)C(Cl)(Cl)Cl)C(=O)O)C(Cl)(Cl)Cl
inactive: Candida albicans [1] | Pichia kudriavzevii | Candida albicans [2] | Nakaseomyces glabratus
